# pIC50: −log10 of the molar value. Read-outs that look alike come from different tables or passages of the source.
# Assays:
# [1] = test system: human glioma (GLO7); experiment: Antitumor effect of the compounds against human glioma (GLO7), nude mice xenograft; format: in vivo; details: Mus musculus, po, 216 h, read-out: Tumor growth inhibition rate (TGIR)
# Description: Analogously to 2, human glioma cells, GLO7 (obtained from the Central Institute for Experimental Animals), was transplanted into nude mice. When the tumor had grown to a volume of about 100 mm^3, the nude mice were divided into several groups of 4 animals so as to equalize the average tumor volumes of each group. The test drug was administered orally to animals in experimental groups once a day for 9 consecutive days at 50 mg/kg, and the vehicle was administered to control animals. The tumor growth inhibition rate (TGIR, %) was calculated from the equation: TGIR=(1-Tx/Cx)×100, in which Cx is the tumor volume in the control mice and Tx is the tumor volume in the drug-treated mice, on day X, when the initial tumor volume at the time treatment was commenced is set 1.
# [2] = biological target: T1, PDGF receptor (Rattus norvegicus, UniProt Q05030); experiment: PDGF receptor autophosphorylation inhibition in cultured rat mesangial cells; format: cell-based; details: PDGF-BB 50 ng/ml
# T1 construct: cultured rat mesangial cells which are known to have the PDGF receptor; endogenous in cells; host or cells: primary mesangial cells cultured from glomeruli of Wistar-Kyoto rats (Charles River Japan), more than 5 passages
# Description: 1. Cultivation of rat mesangial cells
# The glomerulus-derived adhesive cells were subcultured several times to obtain mesangial cells. The mesangial cells subcultured more than 5 passages were used for the assay.
# 2.Evaluation of PDGF receptor autophosphorylation inhibition
# The mesangial cells were seeded in 24-well flat-bottom microtiter plates and then cultured in the medium containing 10% FCS for 2 days. When the cells were grown to about 3×10^4 cells per well, the medium was changed to the medium containing 0.5% FCS, the cultivation was continued for another 3 days, and then cell growth was arrested. The culture medium was removed, the adhered cells were washed with 500 μl of the medium, and 250 μl of the medium containing 0.1% bovine serum albumin (hereinafter abbreviated to BSA) was then added. A test drug dissolved in 1.38 μl of dimethyl sulfoxide (hereinafter abbreviated to DMSO) was added to this culture medium, and the admixture was incubated at 37° C. for 1 hour. Recombinant human platelet-derived growth factor BB chain (hereinafter abbreviated to PDGF-BB) was dissolved in the medium containing 0.1% BSA, 25 μl per well of the solution was added at final 50 ng/ml, and the incubation was continued at 37° C. for 10 minutes. […] The cells were allowed to stand at 4° C. for 30 minutes for lysis, and the resulting solution was thoroughly admixed with an equal amount of Tris-buffered physiological saline containing 1% sodium dodecyl sulfate (hereinafter abbreviated to SDS). […] After the electrophoresis, proteins in the gel were electrically transferred to a PVDF filter, which was then subjected to Western blotting using monoclonal antibodies against phosphotyrosine. Bands of PDGF receptor (molecular weight: about 180 Kda) which were autophosphorylated due to the addition of PDGF-BB were quantitated by a densitometer. Autophosphorylation rates for individual wells with drugs were calculated by setting measurements for PDGF receptor autophosphorylation in the wells without drugs in the presence and absence of PDGF-BB as 100% and 0%, respectively.
# [3] = nude mice, 50 mg/kg orally once a day, 9 days
# T1 sequence (Q05030 32-1097): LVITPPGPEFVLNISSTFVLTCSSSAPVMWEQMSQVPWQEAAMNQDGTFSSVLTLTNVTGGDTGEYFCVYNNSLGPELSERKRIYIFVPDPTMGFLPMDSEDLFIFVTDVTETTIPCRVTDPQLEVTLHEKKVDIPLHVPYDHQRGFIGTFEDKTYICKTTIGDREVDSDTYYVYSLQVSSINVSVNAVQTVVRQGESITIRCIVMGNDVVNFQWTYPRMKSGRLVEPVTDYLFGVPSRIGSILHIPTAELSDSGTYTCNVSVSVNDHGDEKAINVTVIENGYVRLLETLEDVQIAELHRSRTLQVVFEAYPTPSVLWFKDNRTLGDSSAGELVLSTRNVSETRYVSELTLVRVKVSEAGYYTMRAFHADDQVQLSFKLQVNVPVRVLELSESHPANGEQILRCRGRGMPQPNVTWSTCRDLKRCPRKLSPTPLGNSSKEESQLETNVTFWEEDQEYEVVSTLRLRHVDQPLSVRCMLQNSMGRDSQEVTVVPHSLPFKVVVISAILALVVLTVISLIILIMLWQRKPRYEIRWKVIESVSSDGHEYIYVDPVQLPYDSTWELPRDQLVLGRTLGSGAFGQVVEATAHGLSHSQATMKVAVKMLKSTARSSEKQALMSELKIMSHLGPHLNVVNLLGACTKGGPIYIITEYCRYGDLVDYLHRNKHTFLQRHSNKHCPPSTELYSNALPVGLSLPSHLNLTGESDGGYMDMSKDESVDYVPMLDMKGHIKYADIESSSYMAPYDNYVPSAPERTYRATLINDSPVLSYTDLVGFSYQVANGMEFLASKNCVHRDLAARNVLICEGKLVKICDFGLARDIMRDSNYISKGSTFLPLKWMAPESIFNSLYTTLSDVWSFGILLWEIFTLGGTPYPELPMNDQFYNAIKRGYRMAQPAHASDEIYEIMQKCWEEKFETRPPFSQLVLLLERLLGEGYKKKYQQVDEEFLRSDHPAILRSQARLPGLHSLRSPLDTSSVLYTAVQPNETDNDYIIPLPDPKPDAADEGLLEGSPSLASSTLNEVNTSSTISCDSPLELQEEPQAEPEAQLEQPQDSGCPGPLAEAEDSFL
pIC50 [2],Compound,"inhibition in vivo at 50 mg/kg [1, 3]",inhibition in vivo at 50 mg/kg [1]
8.22,"COc1cc2nccc(Oc3ccc(NC(=O)Nc4ccc(F)cc4)cc3)c2cc1OC [Compound 44, N-(4-Fluorophenyl)-N'-{4-[(6,7-dimethoxy-4-quinolinyl)oxy]phenyl}urea]",78%,–
7.85,"COc1cc2nccc(Oc3ccc(NC(=O)Nc4ccc(Br)cc4)cc3)c2cc1OC [Compound 45, N-(4-Bromophenyl)-N'-{4-[(6,7-dimethoxy-4-quinolinyl)oxy]phenyl}urea]",68%,–
7.52,"COc1cc2nccc(Oc3ccc(NC(=O)Nc4ccc(C(F)(F)F)cc4)cc3)c2cc1OC [Compound 52, N-(4-Trifluoromethylphenyl)-N'-{4-[(6,7-dimethoxy-4-quinolinyl)oxy]phenyl}urea]",86%,–
8.40,"COc1cc2nccc(Oc3ccc(NC(=O)Nc4ccccc4C)cc3)c2cc1OC [Compound 56, N-{4-[(6,7-Dimethoxy-4-quinolyl)oxy]phenyl}-N'-(2-methylphenyl)urea]",52%,–
8.22,COc1ccccc1NC(=O)Nc1ccc(Oc2ccnc3cc(OC)c(OC)cc23)cc1 [Compound 57],64%,–
8.40,COc1cc2nccc(Oc3ccc(NC(=O)Nc4cccc(F)c4)cc3)c2cc1OC [Compound 59],82%,–
–,"COc1cc2nccc(Oc3ccc(NC(=O)Nc4ccc(Cl)cc4)cc3)c2cc1OC [Compound 165, N-(4-Chlorophenyl)-N'-{4-[(6,7-dimethoxy-4-quinolyl)oxy]phenyl}urea]",–,70%
8.22,"COc1cc2nccc(Oc3ccc(NC(=O)Nc4ccccc4[N+](=O)[O-])cc3)c2cc1OC [Compound 168, N-{4-[(6,7-Dimethoxy-4-quinolyl)oxy]phenyl}-N'-(2-nitrophenyl)urea]",56%,–
–,COc1cc2nccc(Oc3ccc(NC(=O)Nc4ccccc4N(C)C)cc3)c2cc1OC [Compound 191],50%,–
–,"COc1cc2nccc(Oc3ccc(NC(=O)Nc4ccc(Cl)cc4Cl)cc3)c2cc1OC [Compound 229, N-(2,4-Dichlorophenyl)-N'-{4-[(6,7-dimethoxy-4-quinolyl)oxy]phenyl}urea]",–,81%
–,COc1cc2nccc(Oc3ccc(NC(=O)Nc4cc(Cl)ccc4Cl)cc3)c2cc1OC [Compound 235],–,78%
–,"COc1cc2nccc(Oc3ccc(NC(=O)Nc4ccc(Cl)c(Cl)c4)cc3)c2cc1OC [Compound 236, N-(3,4-Dichlorophenyl)-N'-[4-[(6,7-dimethoxy-4-quinolyl)oxy]phenyl}urea]",–,84%
–,"COc1cc2nccc(Oc3ccc(NC(=O)Nc4cc(Cl)cc(Cl)c4)cc3)c2cc1OC [Compound 237, N-(3,5-Dichlorophenyl)-N'-{4-[(6,7-dimethoxy-4-quinolyl)oxy]phenyl}urea]",–,74%
–,"COc1cc2nccc(Oc3ccc(NC(=O)Nc4cc(C(F)(F)F)ccc4C(F)(F)F)cc3)c2cc1OC [Compound 264, N-(2,5-Bis(trifluoromethyl)phenyl]-N'-{4-[(6,7-dimethoxy-4-quinolyl)oxy]phenyl}urea]",63%,–
7.62,"COc1cc2nccc(Oc3ccc(C(=O)c4ccc(N5CCOCC5)cc4)cc3)c2cc1OC [Compound 288, {4-[(6,7-Dimethoxy-4-quinolyl)oxy]phenyl}[4-morpholinophenyl]methanone]",–,–
7.49,"COc1cc2nccc(Oc3ccc(C(=O)c4ccc(N5CCCC5)cc4)cc3)c2cc1OC [Compound 289, (4-[{6,7-Dimethoxy-4-quinolyl)oxy]phenyl)[4-pyrrolidinophenyl]methanone]",–,–
7.26,"COc1cc2nccc(Oc3ccc(C(=O)c4ccc(N5CCCCC5)cc4)cc3)c2cc1OC [Compound 290, {4-[(6,7-Dimethoxy-4-quinolyl)oxy]phenyl}[4-piperidinophenyl]methanone]",–,–
7.85,"N-(2-Chloro-3-methylphenyl)-N'-{4-[(6,7-dimethoxy-4-quinolyl)oxy]phenyl}urea [Compound 243]",–,–
